According to ChEMBL document CHEMBL1142047, “Identification of a 5-HT4 receptor antagonist clinical candidate through side-chain modification” (Bioorg Med Chem Lett, 2005):

Columns and labels:
[1] = Time taken for half of the concentration to degrade upon oral administration (n=7; 0.5 mg/kg po); format: ADME, organism-based, Canis lupus familiaris; parameters: dose 0.5 mg/kg, route oral; conditions: dog, in vivo
[2] = target: 5-hydroxytryptamine receptor 4 (Homo sapiens, UniProt Q13639); assay: Inhibitory constant for human cloned 5-HT4 receptor
5-hydroxytryptamine receptor 4, sequence (Q13639 whole entry): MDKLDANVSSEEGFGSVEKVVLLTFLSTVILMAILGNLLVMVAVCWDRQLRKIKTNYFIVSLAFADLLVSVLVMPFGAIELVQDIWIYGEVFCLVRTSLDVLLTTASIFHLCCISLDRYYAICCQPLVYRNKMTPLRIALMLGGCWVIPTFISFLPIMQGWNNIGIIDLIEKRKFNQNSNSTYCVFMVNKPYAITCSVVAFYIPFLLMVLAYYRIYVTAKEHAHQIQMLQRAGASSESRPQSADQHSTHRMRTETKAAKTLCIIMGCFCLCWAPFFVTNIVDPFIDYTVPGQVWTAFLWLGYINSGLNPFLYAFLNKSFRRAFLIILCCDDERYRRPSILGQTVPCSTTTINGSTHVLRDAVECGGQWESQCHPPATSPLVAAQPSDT

[3] = Volume of distribution in dog (n=7; dose 0.25 mg/kg iv or 0.5 mg/kg po); conditions: in vivo
[4] = Time taken for half of the concentration to degrade upon intravenous administration (n=7; dose 0.25 mg/kg iv); conditions: dog, in vivo
[5] = (§1) Bioavailability in dog (dose 0.25 mg/kg i.v. and 0.5 mg/kg p.o.); conditions: in vivo, po
[6] = Time taken for half of the concentration to degrade upon intravenous administration (n=8; dose 0.25 mg/kg iv); format: ADME, organism-based, Canis lupus familiaris; parameters: dose 0.25 mg/kg, route intravenous; conditions: dog, in vivo
[7] = Volume of distribution in dog (n=8; dose 0.25 mg/kg iv or 0.5 mg/kg po); format: ADME, organism-based, Canis lupus familiaris; conditions: in vivo, read-out: Vz
[8] = as §1; format: ADME, organism-based, Canis lupus familiaris; conditions: in vivo, po
[9] = Plasma clearance in dog (n=8; dose 0.25 mg/kg iv or 0.5 mg/kg po); format: ADME, organism-based, Canis lupus familiaris
[10] = Time taken for half of the concentration to degrade upon oral administration; format: ADME, organism-based, Canis lupus familiaris; conditions: dog, in vivo
in vivo [11] = conditions: dog, plasma, iv, 0.25 mg/kg
[12] = Intrinsic clearance of compound in dog liver microsomes
[13] = Volume of distribution in dog (n=12; dose 0.25 mg/kg iv or 0.5 mg/kg po); conditions: in vivo
[14] = Percentage bioavailability (n=12; dose 0.25 mg/kg iv or 0.5 mg/kg po); format: ADME, organism-based, Canis lupus familiaris; conditions: dog, in vivo
[15] = Time taken for half of the concentration to degrade upon intravenous administration (n=12; dose 0.25 mg/kg iv); conditions: dog, in vivo
in vivo [16] = conditions: dog, plasma, iv, 0.25 mg/kg; remark: listed apart in the source
[17] = Intrinsic clearance of compound in human liver microsomes
Histamine H1 receptor = Histamine H1 receptor (Rattus norvegicus, UniProt P31390)
Histamine H1 receptor, sequence (P31390 whole entry): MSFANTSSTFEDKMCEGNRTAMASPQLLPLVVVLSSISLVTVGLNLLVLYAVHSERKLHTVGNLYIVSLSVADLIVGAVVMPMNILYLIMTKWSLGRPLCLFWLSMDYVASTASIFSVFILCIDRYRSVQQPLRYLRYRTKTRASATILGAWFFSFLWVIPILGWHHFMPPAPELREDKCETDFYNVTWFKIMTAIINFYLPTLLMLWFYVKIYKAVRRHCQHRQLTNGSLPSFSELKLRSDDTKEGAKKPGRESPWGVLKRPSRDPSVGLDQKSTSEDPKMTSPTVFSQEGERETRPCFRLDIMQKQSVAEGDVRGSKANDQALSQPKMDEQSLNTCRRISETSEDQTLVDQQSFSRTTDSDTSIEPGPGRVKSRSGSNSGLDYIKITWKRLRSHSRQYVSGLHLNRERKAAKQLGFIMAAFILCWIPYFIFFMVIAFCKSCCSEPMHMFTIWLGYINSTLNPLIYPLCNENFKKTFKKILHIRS

[18] = Half-life in human; format: ADME
in vivo [19] = conditions: rat
[20] = Bioavailability in rat; format: ADME, organism-based; conditions: in vivo

SMILES	Ki [2] [nM]	Vd [3] [L/kg]	half-life [4] [h]	bioavailability [5] [%]	also measured
CS(=O)(=O)N1CCN(S(=O)(=O)CCCN2CCC(CNC(=O)c3cccc4c3OCCO4)CC2)CC1	0.316	0.3	1.2	90	half-life [1]: 3.6 h
O=C(NCC1CCN(CCCS(=O)(=O)N2CCN(Cc3cccnc3)CC2)CC1)c1cccc2c1OCCO2	0.158				
O=C(NCC1CCN(CCCS(=O)(=O)N2CCN(S(=O)(=O)c3ccc(F)cc3)CC2)CC1)c1cccc2c1OCCO2	0.0316				
CCC(C)N1CCN(S(=O)(=O)CCCN2CCC(CNC(=O)c3cccc4c3OCCO4)CC2)CC1 (configuration not stated)	0.0251				
O=C(NCC1CCN(CCCS(=O)(=O)N2CCN(C3CCCC3)CC2)CC1)c1cccc2c1OCCO2	0.0158				half-life [6]: 2.9 h; Vd [7]: 9.3 L/kg; bioavailability [8]: 42%; clearance [9]: 37 mL/min/kg
CCN1CCN(S(=O)(=O)CCCN2CCC(CNC(=O)c3cccc4c3OCCO4)CC2)CC1	0.0501	3.6	3.1	94	
O=C(NCC1CCN(CCCS(=O)(=O)N2CCNCC2)CC1)c1cccc2c1OCCO2	0.158				half-life [6]: 37 h; Vd [7]: 34 L/kg; bioavailability [8]: 33%; clearance [9]: 11 mL/min/kg
CC(=O)N1CCN(S(=O)(=O)CCCN2CCC(CNC(=O)c3cccc4c3OCCO4)CC2)CC1	0.126	0.7	1.3	51	half-life [10]: 4.6 h; clearance (in vivo [11]): 6 mL/min/kg
O=C(NCC1CCN(CCCS(=O)(=O)N2CCN(c3ccc(F)cc3)CC2)CC1)c1cccc2c1OCCO2	0.0501				
CCCCN1CCC(CNC(=O)c2c3n(c4ccccc24)CCCO3)CC1 [PIBOSEROD]	0.251				microsomal CLint [12]: 4 µL/min/mg; Vd [13]: 5 L/kg; bioavailability [14]: 71%; half-life [15]: 7.1 h; clearance (in vivo [16]): 8 mL/min/kg; microsomal CLint [17]: 5 µL/min/mg
CN1CCN(S(=O)(=O)CCCN2CCC(CNC(=O)c3cccc4c3OCCO4)CC2)CC1	0.251				IC50 (Histamine H1 receptor): 100 nM
O=C(NCC1CCN(CCCS(=O)(=O)N2CCN(c3ncccn3)CC2)CC1)c1cccc2c1OCCO2	0.251	0.3	0.7	65	clearance (in vivo [11]): 5 mL/min/kg
CCCN1CCN(S(=O)(=O)CCCN2CCC(CNC(=O)c3cccc4c3OCCO4)CC2)CC1	0.0316				
CC(C)N1CCN(S(=O)(=O)CCCN2CCC(CNC(=O)c3cccc4c3OCCO4)CC2)CC1	0.0316	3.6	3	72	clearance (in vivo [11]): 14 mL/min/kg
CCCCN1CCC(CNC(=O)c2cccc3c2OCCO3)CC1	0.794				half-life [18]: 60 h; half-life (in vivo [19]): < 1 h; bioavailability [20]: 18%
CC(C)S(=O)(=O)N1CCN(S(=O)(=O)CCCN2CCC(CNC(=O)c3cccc4c3OCCO4)CC2)CC1	0.126				
O=C(NCC1CCN(CCCS(=O)(=O)N2CCC3(CCCC3)CC2)CC1)c1cccc2c1OCCO2	0.0251				
O=C(NCC1CCN(CCCS(=O)(=O)N2CCN(S(=O)(=O)N3CCCC3)CC2)CC1)c1cccc2c1OCCO2	0.0794				
CCCC1CCN(S(=O)(=O)CCCN2CCC(CNC(=O)c3cccc4c3OCCO4)CC2)CC1	0.0631	1.4	0.5	15	clearance (in vivo [11]): 33 mL/min/kg
CCCS(=O)(=O)N1CCN(S(=O)(=O)CCCN2CCC(CNC(=O)c3cccc4c3OCCO4)CC2)CC1	0.1	0.7	0.7	82	clearance (in vivo [11]): 12 mL/min/kg
O=C(NCC1CCN(CCCS(=O)(=O)N2CCCCC2)CC1)c1cccc2c1OCCO2	0.2				
O=C(NCC1CCN(CCCS(=O)(=O)N2CCN(C(=O)c3ccco3)CC2)CC1)c1cccc2c1OCCO2	0.1				half-life [6]: 1 h; Vd [7]: 0.2 L/kg; bioavailability [8]: 64%; clearance [9]: 2 mL/min/kg
O=C(NCC1CCN(CCCS(=O)(=O)N2CCOCC2)CC1)c1cccc2c1OCCO2	0.398			76	Vd [13]: 1.6 L/kg; half-life [15]: 1 h; clearance (in vivo [16]): 7 mL/min/kg
CC1(C)CCN(S(=O)(=O)CCCN2CCC(CNC(=O)c3cccc4c3OCCO4)CC2)CC1	0.126	1.5	0.7	100	clearance (in vivo [11]): 27 mL/min/kg
